The values below come from patent US8906908B2, “Hydroxybupropion analogues for treating drug dependence” (priority 2010, dated 2014).

What is called IC50 is the concentration at which inhibition is half-maximal.

Read-outs that look alike come from different tables or passages of the source. A value given as a limit tells only on which side of the number the result lay.

Assay [1] addresses T1, human DA transporters [(h)DAT] (Homo sapiens, UniProt Q01959).
T1 construct: expressed in transfected cells; host or cells: HEK-293
Put plainly: Inhibition of [3H]dopamine uptake into HEK293 cells stably expressing hDAT. In kind it is cell-based. From the text: (§1) Cell Lines and Culture: Human embryonic kidney (HEK-293) cells stably expressing human DAT, NET or SERT were maintained as previously described in Eshleman, A. J.; Carmolli, M.; Cumbay, M.; Martens, C. R.; Neve, K. A.; Janowsky, A., J. Pharmacol. Exp. Ther. 1999, 289, (2), 877-885. Use was made of several human cell lines that naturally or heterologously express specific, functional, human nAChR subtypes. Cells of the TE671/RD line naturally expresses muscle-type nAChR (a1β1γδ- or α1*-nAChR), and SH-SY5Y neuroblastoma cells naturally expresses autonomic α3β4*-nAChRs (containing α3, β4, probably α5, and sometimes β2 subunits). Different clones of SH-EP1 epithelial cell lines have been engineered to heterologously express either α4β2-nAChR, which are thought to be the most abundant, high affinity nicotine-binding nAChR in mammalian brain, or α4β4-nAChR, another possible brain nAChR subtype (SH-EP1-hα4β2 or α4β4 cells, respectively). These cells were maintained as low passage number (1-26 from our frozen stocks) cultures to ensure stable expression of native or heterologously-expressed nAChR as previously described (see Lukas, R. J.; Fryer, J. D.; Eaton, J. B.; L., G. C., Some methods for studies of nicotinic acetylcholine receptor pharmacology, in Nicotinic receptors and the Nervous System, Levine, E. D., Ed. CRC Press: Boca Raton, 2002; pp 3-27, incorporated herein by reference in its entirety). Cells were passaged once weekly by splitting just-confluent cultures 1/300 (TE671/RD), 1/5 (SH-SY5Y), or 1/20 (transfected SH-EP1) in serum-supplemented medium to maintain log-phase growth.
See, for example, Damaj, M. I.; Carroll, F. I.; Eaton, J. B.; Navarro, H. A.; Blough, B. E.; Mirza, S.; Lukas, R. J.; Martin, B. R., Mol. Pharmacol. 2004, 66, (3), 675-682 and Eshleman, A. J.; Carmolli, M.; Cumbay, M.; Martens, C. R.; Neve, K. A.; Janowsky, A., J. Pharmacol. Exp. Ther. 1999, 289, (2), 877-885, both incorporated by reference herein in their entireties.

In assay [2] the target is T2, muscle-type nAChR (α1β1γδ- or α1*-nAChR) (Homo sapiens, UniProt P02708+P07510+P11230+Q07001).
T2 construct: Cells of the TE671/RD line naturally expresses muscle-type nAChR; endogenous in cells; host or cells: TE671/RD cells
Put plainly: 86Rb+ efflux nAChR functional assay, TE671/RD cells. It is filed as cell-based. The conditions noted are these: parentheses = S.E.M. as multiplication/division factor.
Description: as §1
(§2) After cells had adhered (generally overnight, but no sooner than 4 h later), the medium was removed and replaced with 250 μL per well of complete medium supplemented with ˜350,000 cpm of ^86Rb^+ (PerkinElmer Life and Analytical Sciences, Boston, Mass.) and counted at 40% efficiency using Cerenkov counting (TriCarb 1900 liquid scintillation analyzer[…]; PerkinElmer Life Sciences).
(§3) After at least 4 h and typically overnight, ^86Rb^+ efflux was measured using the “flip-plate” technique. See Lukas, R. J.; Fryer, J. D.; Eaton, J. B.; L., G. C., Some methods for studies of nicotinic acetylcholine receptor pharmacology, in Nicotinic receptors and the Nervous System, Levine, E. D., Ed. CRC Press: Boca Raton, 2002; pp 3-27, incorporated herein by reference in its entirety). Briefly, after aspiration of the bulk of ^86Rb^+ loading medium from each well of the “cell plate,” each well containing cells was rinsed 3× with 2 mL of fresh ^86Rb^+ efflux buffer (130 mM NaCl, 5.4 mM KCl, 2 mM CaCl2, 5 mM glucose, 50 mM HEPES, pH 7.4) to remove extracellular ^86Rb^+. Following removal of residual rinse buffer by aspiration, the flip-plate technique was used again to simultaneously introduce 1.5 mL of fresh efflux buffer containing drugs of choice at indicated final concentrations from a 24-well “efflux/drug plate” into the wells of the cell plate. After a 5 min incubation, the solution was “flipped” back into the efflux/drug plate, and any remaining buffer in the cell plate was removed by aspiration. Cells remaining in the cell plate were lysed and suspended by addition of 1.5 mL of 0.1 M NaOH, 0.1% sodium dodecyl sulfate to each well.
(§4) Similarly, the sum of ^86Rb^+ in cell plates and efflux/drug plates also determined the efficiency of ^86Rb^+ loading (the percentage of applied ^86Rb^+ actually loaded into cells).
(§5) Specific efflux was then taken as the difference in control samples between total and non-specific ^86Rb^+ efflux. Any intrinsic agonist activity of test drugs was ascertained using samples containing test drug only at different concentrations and was normalized, after subtraction of non-specific efflux, to specific efflux in test drug-free, control samples.

In another assay the test system is α3β4*-nAChR. Briefly: 86Rb+ efflux nAChR functional assay, SH-SY5Y cells. In kind it is cell-based, human.
Description: as §1, §2, §3, §4, §5

Setting [3] is: HEK293-hDAT, mean ± standard error of three independent experiments, read-out: monoamine uptake inhibition IC50 [3H]DA.
Setting [4] is: nAChR inhibition IC50 α1*β1, EC80-EC90 carbamylcholine.
[5] abbreviates: EC80-EC90 carbamylcholine, read-out: nAChR inhibition IC50 α1*β1.

T1 sequence (Q01959 whole entry): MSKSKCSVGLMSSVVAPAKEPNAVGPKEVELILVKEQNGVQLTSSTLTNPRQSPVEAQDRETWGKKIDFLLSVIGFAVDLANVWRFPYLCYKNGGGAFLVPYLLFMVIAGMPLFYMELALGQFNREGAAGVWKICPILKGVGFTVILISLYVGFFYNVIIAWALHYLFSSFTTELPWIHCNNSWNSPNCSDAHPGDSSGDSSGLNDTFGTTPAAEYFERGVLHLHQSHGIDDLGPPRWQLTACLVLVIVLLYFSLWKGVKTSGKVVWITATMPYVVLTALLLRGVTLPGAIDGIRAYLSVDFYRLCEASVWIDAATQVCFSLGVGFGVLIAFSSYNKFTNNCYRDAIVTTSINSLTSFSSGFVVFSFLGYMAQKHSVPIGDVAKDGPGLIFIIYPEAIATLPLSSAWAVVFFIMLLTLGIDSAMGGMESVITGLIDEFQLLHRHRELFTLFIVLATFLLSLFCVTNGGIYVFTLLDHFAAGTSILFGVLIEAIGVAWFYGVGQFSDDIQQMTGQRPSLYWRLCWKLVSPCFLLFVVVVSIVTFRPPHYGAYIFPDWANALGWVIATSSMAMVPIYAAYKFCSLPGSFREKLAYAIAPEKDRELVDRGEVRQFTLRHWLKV
T2 sequence (P02708 21-457): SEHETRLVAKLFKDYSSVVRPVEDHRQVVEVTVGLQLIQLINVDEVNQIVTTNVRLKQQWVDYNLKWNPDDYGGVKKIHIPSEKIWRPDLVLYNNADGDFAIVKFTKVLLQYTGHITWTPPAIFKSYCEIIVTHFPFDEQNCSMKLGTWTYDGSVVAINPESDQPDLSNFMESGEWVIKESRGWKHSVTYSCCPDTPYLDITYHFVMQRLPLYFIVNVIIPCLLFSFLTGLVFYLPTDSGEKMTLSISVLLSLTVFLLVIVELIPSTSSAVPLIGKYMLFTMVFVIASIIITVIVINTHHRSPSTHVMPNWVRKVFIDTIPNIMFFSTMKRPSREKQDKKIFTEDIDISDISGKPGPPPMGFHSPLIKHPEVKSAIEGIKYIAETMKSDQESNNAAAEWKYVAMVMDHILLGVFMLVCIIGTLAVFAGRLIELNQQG
T2 sequence (P11230 24-501): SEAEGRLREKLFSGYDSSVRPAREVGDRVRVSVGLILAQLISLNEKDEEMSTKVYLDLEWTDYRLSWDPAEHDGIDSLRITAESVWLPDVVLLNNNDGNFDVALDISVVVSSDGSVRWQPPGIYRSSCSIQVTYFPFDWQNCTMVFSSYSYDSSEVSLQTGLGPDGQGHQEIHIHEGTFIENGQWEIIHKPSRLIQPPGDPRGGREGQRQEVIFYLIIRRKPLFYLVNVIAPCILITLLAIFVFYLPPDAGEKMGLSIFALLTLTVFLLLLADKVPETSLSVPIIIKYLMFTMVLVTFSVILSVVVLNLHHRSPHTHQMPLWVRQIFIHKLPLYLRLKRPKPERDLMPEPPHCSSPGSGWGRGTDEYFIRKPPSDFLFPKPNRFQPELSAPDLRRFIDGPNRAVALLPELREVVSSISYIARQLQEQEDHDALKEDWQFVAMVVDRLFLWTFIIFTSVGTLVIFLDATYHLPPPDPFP
T2 sequence (P07510 23-517): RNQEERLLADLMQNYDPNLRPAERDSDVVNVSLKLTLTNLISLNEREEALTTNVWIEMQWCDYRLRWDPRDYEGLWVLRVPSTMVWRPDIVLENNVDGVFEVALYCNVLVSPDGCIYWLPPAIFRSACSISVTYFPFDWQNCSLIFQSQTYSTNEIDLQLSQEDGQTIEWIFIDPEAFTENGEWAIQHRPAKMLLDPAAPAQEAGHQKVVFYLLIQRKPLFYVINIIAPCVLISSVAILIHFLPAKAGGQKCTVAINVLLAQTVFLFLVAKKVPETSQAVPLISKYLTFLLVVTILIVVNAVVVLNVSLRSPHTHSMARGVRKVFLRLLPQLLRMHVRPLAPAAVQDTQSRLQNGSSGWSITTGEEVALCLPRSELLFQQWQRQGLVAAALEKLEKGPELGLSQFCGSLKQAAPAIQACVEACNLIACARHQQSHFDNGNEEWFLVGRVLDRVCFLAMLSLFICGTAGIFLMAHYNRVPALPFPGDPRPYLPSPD
T2 sequence (Q07001 22-517): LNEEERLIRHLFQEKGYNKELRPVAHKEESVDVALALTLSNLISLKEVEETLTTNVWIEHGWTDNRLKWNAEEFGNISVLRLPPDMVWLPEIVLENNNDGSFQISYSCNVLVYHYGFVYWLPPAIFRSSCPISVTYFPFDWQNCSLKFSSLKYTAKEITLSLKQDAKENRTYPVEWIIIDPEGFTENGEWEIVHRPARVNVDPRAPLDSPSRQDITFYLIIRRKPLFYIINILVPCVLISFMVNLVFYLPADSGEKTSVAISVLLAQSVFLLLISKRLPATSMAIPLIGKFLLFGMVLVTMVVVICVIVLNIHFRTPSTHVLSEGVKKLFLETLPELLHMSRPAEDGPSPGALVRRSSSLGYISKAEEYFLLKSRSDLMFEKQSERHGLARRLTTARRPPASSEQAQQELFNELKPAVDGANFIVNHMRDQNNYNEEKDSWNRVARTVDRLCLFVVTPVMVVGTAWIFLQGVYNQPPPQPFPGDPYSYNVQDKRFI

Regarding `CC1NC(C)(C)COC1(O)c1cc(Cl)cc(Cl)c1` (racemic) [Compound 4p, 2-(3,5-Dichlorophenyl)-3,5,5-trimethylmorpholin-2-ol], the IC50 was determined as 8.25 ± 0.72 µM in assay [1] (setting [3]) and 7.2 µM in assay [2] (setting [4]).

Consider `C[C@@H]1NC(C)(C)CO[C@@]1(O)c1ccc(-c2ccccc2)cc1` [Compound 4l, (2S,3S)-2-Biphenyl-4-yl-3,5,5-trimethylmorpholin-2-ol], for which the half-maximal inhibitory concentration (IC50) in assay [1] was over 10 µM; in assay [2] (setting [5]), 5.9 µM; in assay [2] (setting [4]), 5.9 to 19 µM.

As for `C[C@@H]1NC(C)(C)CO[C@@]1(O)c1cc(F)cc(F)c1` [Compound 4o, (2S,3S)-2-(3,5-Difluorophenyl)-3,5,5-trimethylmorpholin-2-ol], the IC50 in assay [1] (setting [3]) was found to be 1.02 ± 0.19 µM; in assay [2] (setting [5]), 23 µM.

In the case of `COc1ccc([C@]2(O)OCC(C)(C)N[C@H]2C)cc1` [Compound 4k, (2S,3S)-2-(4-Methoxyphenyl)-3,5,5-trimethylmorpholin-2-ol], the IC50 is over 10 µM in assay [1] (setting [3]) and 25 µM in assay [2] (setting [5]).

`C[C@@H]1NC(C)(C)CO[C@@]1(O)c1cccc([N+](=O)[O-])c1` [Compound 4g, (2S,3S)-2-(3-Nitrophenyl)-3,5,5-trimethylmorpholin-2-ol]: the figures for the concentration for half-maximal inhibition (IC50) in assay [1] (setting [3]) and in assay [2] (setting [5]) were 12 µM and 96 µM, respectively.

With `CC[C@@H]1NC(C)(C)CO[C@@]1(O)c1cccc(Cl)c1` [Compound 4s, (2S,3S)-2-(3-Chlorophenyl)-3-ethyl-5,5-dimethylmorpholin-2-ol], the 50% inhibitory concentration (IC50) in assay [1] (setting [3]) is 0.204 ± 0.023 µM; in assay [2] (setting [5]), 14 µM.

In the case of `C[C@@H]1N(C)C(C)(C)CO[C@@]1(O)c1ccc(Cl)cc1` [Compound 4v, (2S,3S)-2-(4-Chlorophenyl)-3,4,5,5-tetramethylmorpholin-2-ol], the IC50 in assay [1] (setting [3]) is 2.87 ± 0.82 µM; in assay [2] (setting [5]), 43 µM; in assay [2] (setting [4]), over 33 µM.

On to `C[C@@H]1NC(C)(C)CO[C@@]1(O)c1ccc(Cl)cc1` [Compound 4i, (2S,3S)-2-(4-Chlorophenyl)-3,5,5-trimethylmorpholin-2-ol], for which the values for the half-maximal inhibitory concentration (IC50) in assay [1] (setting [3]) and in assay [2] (setting [5]) were 0.285 µM and 19 µM, respectively.

On to `Cc1ccc([C@]2(O)OCC(C)(C)N[C@H]2C)cc1` [Compound 4j, (2S,3S)-3,5,5-Trimethyl-2-(4-methylphenyl)morpholin-2-ol], for which the results for the IC50 in assay [1] (setting [3]) and in assay [2] (setting [5]) were 0.832 ± 0.26 µM and 20 µM, respectively.

With `C[C@@H]1N(C)C(C)(C)CO[C@@]1(O)c1cccc(Cl)c1` [Compound 4u, (2S,3S)-2-(3-Chlorophenyl)-3,4,5,5-tetramethylmorpholin-2-ol], the half-maximal inhibitory concentration (IC50) in assay [1] (setting [3]) is 3.4 ± 0.6 µM; in assay [2] (setting [5]) it was 57 µM; in assay [2] (setting [4]) it was over 33 µM.

Regarding `C[C@@H]1NC(C)(C)CO[C@@]1(O)c1cccc(F)c1` [Compound 4c, (2S,3S)-2-(3-Fluorophenyl)-3,5,5-trimethylmorpholin-2-ol], the IC50 is 1.38 ± 0.36 µM in assay [1] (setting [3]) and over 100 µM in assay [2] (setting [4]).

On to `C[C@@H]1NC(C)(C)CO[C@@]1(O)c1cccc(Br)c1` [Compound 4d, (2S,3S)-2-(3-Bromophenyl)-3,5,5-trimethylmorpholin-2-ol], for which the IC50 in assay [1] (setting [3]) is 3.34 ± 0.68 µM; in assay [2] (setting [5]), 18 µM; in assay [2] (setting [4]), 5.9 to 19 µM.

Consider `Cc1cccc([C@]2(O)OCC(C)(C)N[C@H]2C)c1` [Compound 4e, (2S,3S)-2-(m-Tolyl)-3,5,5-trimethylmorpholin-2-ol], for which the 50% inhibitory concentration (IC50) was 2.6 ± 0.4 µM in assay [1] (setting [3]), 33 µM in assay [2] (setting [5]) and over 33 µM in assay [2] (setting [4]).

Consider `CC1NC(C)(C)COC1(O)c1ccc(Cl)c(Cl)c1` (racemic) [Compound 4n, 2-(3,4-Dichlorophenyl)-3,5,5-trimethylmorpholin-2-ol], for which, in assay [1], half-maximal inhibition (IC50) was put at 0.07 µM and the “selectivity for inhibition of DA uptake over α4β2-nAChR” value is on record as over 285 fold. Further, the “selectivity for α3β4*- over α4β2-nAChR” value in the assay with α3β4*-nAChR is given as about 8 fold. In addition, the IC50 in assay [2] (setting [4]) was found to be 7.2 µM.

Regarding `C[C@@H]1NC(C)(C)CO[C@@]1(O)c1ccc2ccccc2c1` [Compound 4r, (2S,3S)-2-(Naphthalen-2-yl)-3,5,5-trimethylmorpholin-2-ol], the figures for the IC50 in assay [1] (setting [3]) and in assay [2] (setting [5]) were 0.453 µM and 11 µM, respectively.

With `COc1cccc([C@]2(O)OCC(C)(C)N[C@H]2C)c1` [Compound 4f, (2S,3S)-2-(3-Methoxyphenyl)-3,5,5-trimethylmorpholin-2-ol], the IC50 in assay [1] (setting [3]) worked out at 16 µM; in assay [2] (setting [5]), 49 µM.

As to `C[C@@H]1NC(C)(C)CO[C@@]1(O)c1ccc(F)c(F)c1` [Compound 4m, (2S,3S)-2-(3,4-Difluorophenyl)-3,5,5-trimethylmorpholin-2-ol], the half-inhibitory concentration (IC50) in assay [1] (setting [3]) is 2.14 ± 0.18 µM; in assay [2] (setting [5]) it was 36 µM.

As for `C[C@@H]1NC(C)(C)CO[C@@]1(O)c1ccccc1` [Compound 4b, (2S,3S)-2-Phenyl-3,5,5-trimethylmorpholin-2-ol], the 50% inhibitory concentration (IC50) in assay [1] (setting [3]) is 1.06 ± 0.03 µM; in assay [2] (setting [4]) it was over 100 µM.

Turning to `C[C@@H]1NC(C)(C)CO[C@@]1(O)c1cccc2ccccc12` [Compound 4q, (2S,3S)-2-(Naphthalen-1-yl)-3,5,5-trimethylmorpholin-2-ol], the IC50 was found to be 10 µM in assay [1] (setting [3]) and 6.6 µM in assay [2] (setting [5]).

Turning to `C[C@@H]1NC(C)(C)CO[C@@]1(O)c1ccc(F)cc1` [Compound 4h, (2S,3S)-2-(4-Fluorophenyl)-3,5,5-trimethylmorpholin-2-ol], the figures for the IC50 in assay [1] (setting [3]) and in assay [2] (setting [5]) were 4.2 ± 0.7 µM and 69 µM, respectively.
